Source: US4882343A, “Biarylalkylimidazole derivatives as anti-depressants” (G. D. Searle & Co., priority 1987, dated 1989)

Legend:
α1 adrenergic receptor = assay: in vitro binding to alpha1-adrenergic receptors (3H-WB4101 or 3H-prazosin displacement), rat brain homogenates; settings: for % Inhibition of the specific binding for α1 receptor, Ligand WB / % Inhibition of the specific binding for α1 receptor, Ligand PRA: compd. conc. 10^-6 M, rat brain homogenates; for % Inhibition of the specific binding for α1 receptor, Ligand WB: ligand 3H-WB4101 1.6 nM; for % Inhibition of the specific binding for α1 receptor, Ligand PRA: ligand 3H-prazosin 0.2 nM; for Ki: ligand 3H-prazosin, Cheng and Prusoff, read-out: α1 receptor Ki value, ligand PRA
Experimental: Table II summarizes the binding activities for α1 and α2 adrenergic receptors of the compounds tested. The activity of the compounds according to the invention with respect to binding of the α-adrenergic receptors was determined in vitro according to a method derived from the works of B. R. Rouot, et al., Life Sci., 25, 769 (1979) of D. U'Prichard, et al., Mol. Pharmacol., 13, 454 (1977) and of P. Greengrass, et al., European J. Pharmacol., 55, 323, 1979. This method measures the binding to the receptor on rat brain homogenates by marking by means of a specific tritiated ligand placed in competition with the product to be tested. In the present case the binding, to the α1 -adrenergic receptors was measured by use of 1.6 nM of H-WB 4101 (WB) and 0.2 nM --H--prazosin (PRA). The binding to the α2-adrenergic receptors was determined by uses of 0.7 nM of ^3 H-p-aminoclonidine (PAC). The non-specific binding was determined by use of 1,000 nM of phentolamine. Results are given in Table II with columns 2 and 3 expressed in terms of percentage of inhibition of the specific binding at 10^-7 molar and 10^-6 molar compound concentration.
In Table III, columns 2 and 3 show the pKi values (pKi=-log inhibition constant) for respecively the α1 receptor (ligand ^3 H-prazosin) and the α2 receptor (ligand ^3 H-p-aminoclonidine), calculated according to the equation of Cheng and Prusoff: [formula] wherein: Ki represents the inhibition constant;
IC50 represents the concentration of the test compound providing 50% inhibition of the specific binding;
(§1) KD represents the dissociation constant of the ^3 H-ligand in the test mixture
(§2) [L*] represents the concentration of the ^3 H-ligand in the test mixture.

α2 adrenergic receptor [1] = assay: in vitro binding to alpha2-adrenergic receptors (3H-p-aminoclonidine displacement), rat brain homogenates; settings: ratio of Ki, ligand PRA (α1) / ligand PAC (α2)
Experimental: (§3) This method measures the binding to the receptor on rat brain homogenates by marking by means of a specific tritiated ligand placed in competition with the product to be tested. […] The binding to the α2-adrenergic receptors was determined by uses of 0.7 nM of ^3 H-p-aminoclonidine (PAC). The non-specific binding was determined by use of 1,000 nM of phentolamine.
as §1, §2

α2 adrenergic receptor [2] = molecular target: T1, α2 adrenergic receptor (Rattus norvegicus, UniProt P22909); assay: as above; settings: for Ki: ligand 3H-p-aminoclonidine, Cheng and Prusoff, read-out: α2 receptor Ki value, ligand PAC; for inhibition at 0.1 µM: compd. conc. 10^-7 M, ligand 3H-p-aminoclonidine 0.7 nM, rat brain homogenates, read-out: % Inhibition of the specific binding for α2 receptor, Ligand PAC; for affinity for α2 receptors in the in vitro binding assay (in words): rat brain, result in words; for α2-receptor binding affinity for the aminoclonidine ligand relative to the ortho-pyridyl compound (Compound 3): para- and meta-pyridyl compounds versus ortho-pyridyl compound, Table III column 3
T1 construct: rat brain homogenates; from tissue; host or cells: rat brain homogenate
T1 sequence (P22909 1-465): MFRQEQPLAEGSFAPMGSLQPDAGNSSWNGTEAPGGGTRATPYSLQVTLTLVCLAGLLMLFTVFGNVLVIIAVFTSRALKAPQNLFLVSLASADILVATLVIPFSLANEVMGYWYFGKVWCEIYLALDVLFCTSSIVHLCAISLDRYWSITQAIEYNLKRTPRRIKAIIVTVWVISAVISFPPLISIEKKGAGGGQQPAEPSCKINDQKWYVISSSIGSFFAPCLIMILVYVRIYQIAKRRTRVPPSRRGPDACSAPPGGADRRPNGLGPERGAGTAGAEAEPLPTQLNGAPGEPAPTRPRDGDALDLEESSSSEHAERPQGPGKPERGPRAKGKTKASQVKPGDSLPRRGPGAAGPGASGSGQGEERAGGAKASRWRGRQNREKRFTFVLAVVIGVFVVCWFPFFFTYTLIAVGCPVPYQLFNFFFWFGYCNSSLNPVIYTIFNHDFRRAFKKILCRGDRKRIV
Experimental: as §3, §1, §2

[3] = system: clonidine-induced depression of locomotor activity (α2 agonist effects); assay: open field test, antagonism of clonidine-induced depression of locomotor and rearing activity; assay type: in vivo, mouse; settings: 3 mg/kg p.o.; for Open field test % inhibition of clonidine hypomobility, Locomotion / Open field test % inhibition of clonidine hypomobility, Rearing: 1 h before clonidine 150 μg/kg i.p., mouse
Experimental: This study involved clonidine α2 agonist effects on central control of locomotor activity. Clonidine inhibits locomotor activity and rearing activity in the mouse. In this "open field" test, mice were pretreated with the compounds of the present invention at a dose of 3 mg/kg p.o. (n=4 to 8), one hour prior to intraperitoneal administration of clonidine in solution (150 μg/kg, i.p.). Ninety minutes after the clonidine administration the animals were placed in a rectangular "open field" of 47×53 cm, having a floor divided into 36 boxes of about 8×9 cm. The number of boxes through which the animal goes in 3 minutes and the number of rearing episode were noted.

[4] = acute toxicity after oral administration to mice (LD50); settings: mouse, in vivo, mortality recorded for 15 days
Experimental: The acute toxicity of the compounds of the present invention was studied after oral administration to mice. The products to be tested, suspended in a 1% tragacanth gum mucilage, were administered by means of an intragastric probe to groups of three male mice which had fasted since the preceding day. The doses tested are a function of the effect observed and can vary from 3,000 to 3 mg/kg or less. The mortality was recorded for 15 days. The lethal dose for 50% of the animals (LD50) was calculated according to the method of J. Litchfield and F. Wilcoxon, J. Pharmacol. Exp. Ther., 96, 99 (1949) and expressed in mg/kg. The effect of the products on the behavior of the animals was observed during a 5-to-6 hour period after the treatment indicated above and after 24 hours, using a method derived from that of S. Irwin, described by R. A. Turner, Screening Methods in Pharmacology, Chapter 3, pages 22-34, Academic Press, 1965. If anomalies were noted, the observation was prolonged and smaller doses were tested. The compounds of the present invention have been subjected to a series of in vitro and in vivo tests to determine their biological activity and therapeutic utility. The essential activity of importance resides in the α2 receptor antagonistic activity. […]

α2 adrenergic receptors = molecular target: T2, α2 adrenergic receptors (Cavia porcellus, UniProt Q60474); assay: isolated guinea pig ileum, α2 antagonistic and α2 agonistic activity (clonidine inhibition of electrically induced contractions)
T2 construct: upon isolated organs according to a model described by G. Drews; from tissue; host or cells: isolated guinea pig ileum
T2 sequence (Q60474 1-464): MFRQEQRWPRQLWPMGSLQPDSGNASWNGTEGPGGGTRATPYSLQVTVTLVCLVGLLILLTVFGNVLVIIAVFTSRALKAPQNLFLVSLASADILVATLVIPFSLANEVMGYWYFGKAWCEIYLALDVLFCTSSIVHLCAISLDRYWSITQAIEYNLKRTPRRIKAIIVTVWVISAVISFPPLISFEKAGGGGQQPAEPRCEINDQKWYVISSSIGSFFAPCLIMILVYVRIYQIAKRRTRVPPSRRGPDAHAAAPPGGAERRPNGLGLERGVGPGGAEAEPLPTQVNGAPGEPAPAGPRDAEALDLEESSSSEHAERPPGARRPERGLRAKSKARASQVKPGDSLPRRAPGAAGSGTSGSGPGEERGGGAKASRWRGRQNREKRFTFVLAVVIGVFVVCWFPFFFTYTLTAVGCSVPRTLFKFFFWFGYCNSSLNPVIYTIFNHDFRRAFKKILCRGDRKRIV
Experimental: In Table IV, columns 3 and 4 summarize the in vitro activities of the compounds evaluated in a guinea pig ileum model. Column 5 summarizes the α2 antagonistic effects of the compounds in an in vivo animal model. The α2 antagonistic and α2 agonistic activities of the compounds according to the invention were determined upon isolated organs according to a model described by G. Drews, Br. J. Pharmaco., 64, 293-300 (1978). This model was based upon the principle that the stimulation of the cholinergic nervous transmissions of the guinea pig ileum causes the liberation of acetyl choline, which in turn causes contractions of the ileum. The stimulation of the α2 -adrenergic receptors inhibits the activity of the cholinergic nerves and consequently reduces all responses due to the latter. Thus the contractions of the ileum induced by electric stimulation are inhibited by clonidine, an α2 agonist, in proportion to the dose. This inhibition was selectively displaced by α2 antagonists and not by α1 antagonists. The method used can be summarized as follows. Three dose-response curves to clonidine were established at an interval of 60 minutes. […] The dose-response curves were calculated as a percentage of the maximum inhibition obtained for the first curve. […] The α2 antagonist activity, expressed in pA2 value shown in column 3 of Table IV, was calculated according to J. M. Van Rossum, Arch. […]

Compound | % Inhibition of the specific binding for α1 receptor, Ligand WB (α1 adrenergic receptor) | % Inhibition of the specific binding for α1 receptor, Ligand PRA (α1 adrenergic receptor) | Ki (α1 adrenergic receptor) | Selectivity of α1/α2 affinity (Kiα1/Kiα2) (α2 adrenergic receptor [1]) | Ki (α2 adrenergic receptor [2]) | Open field test % inhibition of clonidine hypomobility, Locomotion [3] | Open field test % inhibition of clonidine hypomobility, Rearing [3] | inhibition at 0.1 µM (α2 adrenergic receptor [2]) | affinity for α2 receptors in the in vitro binding assay (in words) (α2 adrenergic receptor [2]) | α2-receptor binding affinity for the aminoclonidine ligand relative to the ortho-pyridyl compound (Compound 3) (α2 adrenergic receptor [2]) | LD50 at 360 h [4] | Kb (α2 adrenergic receptors; against clonidine, read-out: α2 antagonist activity pA2 (converted)) | EC50 (α2 adrenergic receptors; pD2 = -log ED50, 50% of maximum inhibition obtained with clonidine, read-out: α2 agonist activity pD2 (converted)) | antagonism of clonidine-induced depression of locomotor and rearing activity (in words) ([3]; mouse open field, result in words)
c1ccc(C(Cc2c[nH]cn2)c2ccccc2)cc1 [CC, reference compound] | 21% | 27% | 660 nM | 85 | 7.8 nM | 100% | 100% | – | – | – | – | – | – | –
c1ccc(C(Cc2c[nH]cn2)c2cccnc2)cc1 (stereo not drawn) [Compound 2, 4(5)-[2-phenyl-2-(3-pyridinyl)-ethyl]-imidazole] | 7% | 10% | 2600 nM | 540 | 4.8 nM | – | – | 94% | high affinity for α2 receptors | fifteen times higher | ~175 mg/kg | – | – | –
c1ccc(C(Cc2c[nH]cn2)c2ccccn2)cc1 (stereo not drawn) [Compound 3, 4(5)-[2-phenyl-2-(2-pyridyl)-ethyl]-imidazole] | 0% | – | – | – | 73 nM | – | – | 40% | – | – | 130 mg/kg | 50.1 nM | 100000 nM | –
c1ccc(C(Cc2c[nH]cn2)c2ccncc2)cc1 (stereo not drawn) [Compound 1, 4(5)-[2-phenyl-2-(4-pyridinyl)-ethyl]-imidazole] | 2% | 14% | 13400 nM | 2900 | 4.6 nM | 90% | 80% | 91% | high affinity for α2 receptors | fifteen times higher | – | – | – | very active in this test
